# Assay results published in US20060040870A1, “Enhancement of apoptosis by caspase-9 inhibitors” (priority 2004, published 2006).
# The star is where a group is joined. Cbz = O=C(OCc1ccccc1)*; CH2F = FC*
# Legend:
# CD33+ myeloid cells = experiment: Annexin V staining of sorted cord blood-derived CD33+ myeloid cells removed from MS-5 stroma; format: cell-based, human; details: cultured 18 hours, DMSO control 27.9 ± 3.9, Time 0 <10
# leukemia/lymphoma cells = experiment: Pro-apoptotic activity of caspase inhibitor sequences (Table 2); format: cell-based; parameters: key: “−” is no activity; ++++ is maximum activity
# Excerpt: Caspases are constitutively express in cells, and are usually in their pro-form. In response to an incident, such as irradiation or chemotherapy, the pro-form of the caspase is converted into the activated state. Certain compounds are known that can inhibit caspases. For example, the pan-caspase (PCi) VAD can block all caspases. […] For example, C2i inhibits caspase-2. This particular inhibitor is very dose dependent.
# BLIN-1 cells = experiment: Apoptosis by Annexin V staining and flow cytometry, BLIN-1; format: cell-based, human; details: BLIN-1, 50 μM, 18 hours
# Protocol: (§1) Flow cytometry. Quantitation of apoptotic events was conducted using a FACS Calibur (BD Immunocytometry Systems). All analyses were conducted on cells with lymphoid light scatter characteristics (i.e., low to medium forward scatter and low 90° side scatter).
# (§2) iii. Annexin V. FITC-labeled Annexin V (BD Pharmingen, San Diego, Calif.) was used to detect external phosphatidylserine residues appearing on the external surface of early apoptotic cells (Koopman Blood. 1994;84:1415-1420). Cells were stained according to the manufacturers recommendations.
# (§3) General experimental strategy. BLIN cell lines were removed from fibroblast monolayers, washed once and resuspended to 7.5×10^5/ml in X-VIVO 10. Two hundred μL of resuspended cells were added to 96-well flat-bottom microtiter plates (ISC Bioexpress, Kaysville, Vt.), followed by 0.5-1.0 μL of caspase inhibitors in DMSO. An identical volume of DMSO alone was added to separate wells as a vehicle control. This final DMSO concentration of 0.25-0.5% vol/vol had no adverse affect on any of the BLIN cell lines. At the indicated times the entire content of individual wells was harvested and stained in the fluorescent protocols described above.
# The inventors carried out experiments to test the influence of specific amino acid substitutions on the proapoptotic activity Z-LEHD-fmk. […]
# BLIN-3 cells = experiment: Apoptosis by Annexin V staining and flow cytometry, BLIN-3; format: cell-based, human
# Protocol: as §1, §2, §3
# The inventors carried out experiments to test the influence of specific amino acid substitutions on the proapoptotic activity Z-LEHD-fmk. Cells were cultured for 24 hours with various μM concentrations of Z-LEDH-fmk or single amino acid substitution of the parent peptide. All values in the following Table 3 represent the percentage of total Annexin V+ cells (PI+ and PI−) minus the percentage present in culture with DMSO alone (BLIN-2=3%; BLIN-3+7%; BLIN4L=5%).
# BLIN-4E cells = experiment: Apoptosis by Annexin V staining and flow cytometry, BLIN-4E; format: cell-based, human; details: 50 μM, 18 hours
# Protocol: (§4) FIG. 4 is a pair of graphs showing the effect of […] on various cell lines, as determined by Annexin V staining and flow cytometry. The cells included the B-cell precursor ALL cell lines […], and NALM-6, the RAMOS, RAJI, and DAUDI Burkitt lymphoma cell lines, the CCRF-CEM, JURKAT, and H9 T lymphoma cell lines, the K-562 erythroleukemia cell line, and resting or activated (i.e., CD3/CD28 cross-linked) normal human T cells. […] Flow cytometry. Quantitation of apoptotic events was conducted using a FACS Calibur (BD Immunocytometry Systems). All analyses were conducted on cells with lymphoid light scatter characteristics (i.e., low to medium forward scatter and low 90° side scatter). iii. Annexin V. […] Cells were stained according to the manufacturers recommendations.
# NALM-6 cells = experiment: Apoptosis by Annexin V staining and flow cytometry, NALM-6; format: cell-based; details: NALM-6, 50 μM, 18 hours
# Protocol: as §4
# [1] = system: JURKAT T lymphoma cell line; experiment: Apoptosis by Annexin V staining and flow cytometry, JURKAT; format: cell-based; details: 50 μM, 18 hours
# Protocol: as §4
# [2] = system: K-562 erythroleukemia cell line; experiment: Apoptosis by Annexin V staining and flow cytometry, K-562; format: cell-based; details: K-562, 50 μM, 18 hours
# Protocol: as §4
# [3] = system: activated (CD3/CD28 cross-linked) normal human T cells; experiment: Apoptosis by Annexin V staining and flow cytometry, activated normal T cells; format: cell-based; details: 50 μM, 18 hours
# Protocol: as §4
# [4] = system: PARP (caspase-3/caspase-7 substrate); experiment: Western blotting of PARP cleavage in BLIN-3 and BLIN-4L; format: cell-based, human; details: overnight incubation of BLIN-3 and BLIN-4L cells, 50 μM
# Protocol: Western blotting. This method was conducted essentially as previously described.^20 The antibodies used were: rabbit anti-caspase-2 (catalog # sc-625, Santa Cruz Biotechnology Inc., Santa Cruz, Calif.), rabbit anti-caspase-3 (catalog # 9661, Upstate Cell Signaling Solutions, Waltham, Mass.), rabbit anti-caspase-6 (catalog # 9761, Upstate), rabbit anti-caspase-9 (catalog # 9502, Upstate), mouse anti-PARP (catalog # 556494, Pharmingen), and rabbit anti-Bid (catalog # AF846, R&D Systems). The antibodies to caspase-2 and caspase-9 were generated to the procaspase isoforms, whereas the antibodies to caspase-3 and caspase-6 were generated to cleavage products.
# As expected, inclusion of 50 μM PCi had no effect. The degree of PARP cleavage in the presence of C9i (greater in BLIN-3 than BLIN-4L) correlated with the percentage of Annexin V+ cells (FIG. 3).
# JURKAT T lymphoma cells = experiment: Fas response of JURKAT T lymphoma cells; format: cell-based; details: 50 μM
# [5] = system: caspase-9-deficient cells (BLIN-4L, RAMOS); experiment: Annexin V apoptosis in caspase-9 siRNA-treated BLIN-4L and RAMOS cells; format: cell-based, human; details: BLIN-4L and RAMOS electroporated with caspase-9 siRNA, 50 μM, 8 hours
# Protocol: This technology employs a double algorithm. […] In preliminary studies using FITC-conjugated control siRNA (Dharmacon), we determined that the BLIN cell lines could be transfected to >80% efficiency by electroporation. […] BLIN-4L were then diluted into 4.8 ml of X-VIVO 10 supplemented with 10% FBS and 5 ng/ml of IL-7.
# The inventors performed further studies to determine whether caspase-9 can be completely knocked out by means of RNA interference (RNAi). […] The inventors discovered that C9i induces apoptosis in caspase-9-deficient cells. BLIN-4L (FIG. 7A) and RAMOS (FIG. 7B) cells were electroporated with 8 μM SMARTpool (Dharmacon Inc.) caspase-9 siRNA or control siRNA and allowed to recover for 3 days in X-VIVO/10% FCS supplemented with 5 ng/ml IL-7 (BLIN-4L), or RPMI/10% FCS (RAMOS). After 3 days, the electroporated populations were assayed for Annexin V binding (to determine background levels of apoptosis), and then cultured in DMSO or 50 μM C9i for 8 hours. The cells were then harvested, stained with Annexin V, and analyzed by flow cytometry. […] Thus, no caspase-9 was present at all in the cells. […] Thus, C9i clearly is acting on another molecule in the cell besides just caspase-9. Also, one can conclude that caspase-9 is not necessary for C9i-induced apoptosis to occur.
substance,measurement,setting,value
Z-LEHD-fmk (Cbz-LEHD-CH2F; SMILES CC(C)C[C@H](NC(=O)OCc1ccccc1)C(=O)N[C@@H](CCC(=O)O)C(=O)N[C@@H](Cc1c[nH]cn1)C(=O)N[C@@H](CC(=O)O)C(=O)CF) [C9i],"percentage of total Annexin V+ cells (PI+ and PI−), mean ± SD",CD33+ myeloid cells,22.3 ± 1.2%
same,Pro-apoptotic Activity (after 24 hours),leukemia/lymphoma cells,++++
same,sensitivity (fold-increase in Annexin V+ cells vs DMSO),BLIN-1 cells,sensitive
same,sensitivity (fold-increase in Annexin V+ cells vs DMSO),"BLIN-3 cells; BLIN-3, 50 μM, 18 hours",sensitive
same,apoptosis (Annexin V and TMRE staining) versus DMSO vehicle,"BLIN-3 cells; BLIN-3 removed from adherent fibroblasts, 50 μM, 2-hour time points up to 8 hours",pronounced enhancement of apoptosis
same,sensitivity (fold-increase in Annexin V+ cells vs DMSO),BLIN-4E cells,sensitive
same,sensitivity (fold-increase in Annexin V+ cells vs DMSO),NALM-6 cells,sensitive
same,sensitivity (fold-increase in Annexin V+ cells vs DMSO),[1],sensitive
same,sensitivity (fold-increase in Annexin V+ cells vs DMSO),[2],insensitive
same,sensitivity (fold-increase in Annexin V+ cells vs DMSO),[3],marginally sensitive
same,cleavage of the caspase-3/caspase-7 substrate PARP,[4],led to cleavage
same,Fas response of JURKAT T lymphoma cells,JURKAT T lymphoma cells,blocked the Fas response
same,induction of apoptosis in caspase-9-deficient cells (Annexin V),[5],still induced apoptosis
